According to patent US7718715B2, “pH-modified latex comprising a synergistic combination of biocides” (S.C. Johnson & Son, Inc., priority 2004, dated 2010):

Assays:
[1] = system: Escherichia coli #11229, Pseudomonas aeruginosa #15442; assay: Challenge Test (Antimicrobial Effectiveness Test), bacterial inoculum (1:1 mixture); format: cell-based, E. coli & P. aeruginosa; settings: stabilized acrylic latex A, DN 22%
Method: The following cultures were obtained from American Type Culture Collection (ATCC) at 10801 University Boulevard, Manassas, Va. 20110-2209: Escherichia coli #11229, Pseudomonas aeruginosa #15442, Candida albicans #10231, Aspergillus niger #6275. The bacterial inoculum was 0.10 ml of a 1:1 mixture of the 24-hr±4 hr culture of E. coli and P. aeruginosa in 25 grams of sample to give approximately 4×10^6 CFU/g. Both E. coli culture and the P. aeruginosa culture were grown in Nutrient Broth (Difco Laboratories, Detroit, Mich.) at 35° C. Each of the 25-g samples were inoculated or challenged with 0.10 ml of the bacterial inoculum, the yeast inoculum, and the mold inoculum respectively on day-0 and day-14. All samples were stored at ambient temperature. Each sample (10 microliter) was streaked on appropriate agar plates (bacteria on Tryptic Soy Agar (Difco Laboratories, Detroit, Mich.) plates with neutralizer and yeast/mold on Potato Dextrose Agar (Difco Laboratories, Detroit, Mich.) plates with neutralizer) on day-1, day-2, day-3, day-7, day-14, day-15, day-16, day-17, day-21, and day-28 to test for survivors. Streaked plates were incubated at appropriate temperature and time (48-hr at 35±2° C. for bacteria and 72-hr at 28±2° C. for yeast/mold). On day-14, each sample was re-inoculated with appropriate inoculum after streaking on agar plates. Plates were read after incubation time. Recovery of surviving organisms at 14 days was a failing result for the challenge test. Biocides were always added after the reaction has been completed and after the batch has been cooled to <50° C. The desired temperature was dependent on the specific biocide. Many biocides become deactivated if exposed to high temperatures for an extended time. Each biocide was diluted with about 5× its weight with DI water and slowly added to the batch with good agitation. The dilution is to prevent the biocide from shocking the latex. The batch was mixed for a minimum of 20 minutes after the biocide was added to ensure good incorporation. If any temporary destabilization to the latex had occurred, it had time to recover prior to filtration. The Challenge Test is a qualitative laboratory procedure used to differentiate poorly and marginally preserved products from well-preserved products. Products are intentionally inoculated with test organisms and then evaluated by use of streak plating technique to determine if microbial reduction has been attained.

Candida albicans #10231 = assay: Challenge Test (Antimicrobial Effectiveness Test), yeast inoculum; format: cell-based; set-up: key to Challenge Test result: Yeast C. albicans: Fail: Recovery of surviving organisms at 14 days was a failing result for the challenge test; settings: for Challenge Test result: Yeast C. albicans: stabilized acrylic latex A, DN 22%
Method: The following cultures were obtained from American Type Culture Collection (ATCC) at 10801 University Boulevard, Manassas, Va. 20110-2209: Escherichia coli #11229, Pseudomonas aeruginosa #15442, Candida albicans #10231, Aspergillus niger #6275.
The yeast inoculum was 0.10 ml of a 72-hr±4 hr culture of C. albicans in 25 grams of sample to give approximately 2×10^5 CFU/g. The C. albicans culture was grown in Potato Dextrose Broth (Difco Laboratories, Detroit, Mich.) at 28° C.
(§1) Each of the 25-g samples were inoculated or challenged with 0.10 ml of the bacterial inoculum, the yeast inoculum, and the mold inoculum respectively on day-0 and day-14. All samples were stored at ambient temperature. Each sample (10 microliter) was streaked on appropriate agar plates (bacteria on Tryptic Soy Agar (Difco Laboratories, Detroit, Mich.) plates with neutralizer and yeast/mold on Potato Dextrose Agar (Difco Laboratories, Detroit, Mich.) plates with neutralizer) on day-1, day-2, day-3, day-7, day-14, day-15, day-16, day-17, day-21, and day-28 to test for survivors. Streaked plates were incubated at appropriate temperature and time (48-hr at 35±2° C. for bacteria and 72-hr at 28±2° C. for yeast/mold). On day-14, each sample was re-inoculated with appropriate inoculum after streaking on agar plates. Plates were read after incubation time. Recovery of surviving organisms at 14 days was a failing result for the challenge test.
Biocides were always added after the reaction has been completed and after the batch has been cooled to <50° C. The desired temperature was dependent on the specific biocide. Many biocides become deactivated if exposed to high temperatures for an extended time. Each biocide was diluted with about 5× its weight with DI water and slowly added to the batch with good agitation. The dilution is to prevent the biocide from shocking the latex. The batch was mixed for a minimum of 20 minutes after the biocide was added to ensure good incorporation. If any temporary destabilization to the latex had occurred, it had time to recover prior to filtration.
The Challenge Test is a qualitative laboratory procedure used to differentiate poorly and marginally preserved products from well-preserved products. Products are intentionally inoculated with test organisms and then evaluated by use of streak plating technique to determine if microbial reduction has been attained.

C. albicans & A. niger = assay: Challenge Test end point on yeast and mold and Synergy Index (Kull); format: cell-based; settings: Bioban CS-1135 acting alone (QA); test stabilized acrylic latex A
Method: as §1, with “On day-14, each sample was re-inoculated with appropriate inoculum after streaking on agar plates.” left out, “Recovery of surviving organisms at 14 days was a failing result for the challenge test.” left out
Synergism was determined by the method described by F. C. […] Eisman, H. D. Sylwestrowicz, and R. L. Mayer in Applied Microbiology, Volume 9, pages 538-541, 1961 using the ratio determined by • Synergy Index (SI)=Qa/QA+Qb/QB=1 is additivity, <1 is synergism, and >1 is antagonism • where, • Qa=concentration of compound A, in the mixture, producing an end point • QA=concentration of compound A, acting alone, producing an end point • Qb=concentration of compound B, in the mixture, producing an end point • QB=concentration of compound B, acting alone, producing an end point

[2] = 0.10% Bronopol (30% active), 0.00% Bioban CS-1135, pH 6.64, Table 1
[3] = 0.10% Bronopol (30% active), 0.00% Dowicil 75, pH 6.64, Table 3
[4] = 0.20% Bronopol (30% active), 0.00% Bioban CS-1135, pH 6.65, Table 1
[5] = 0.20% Bronopol (30% active), 0.00% Dowicil 75, pH 6.65, Table 3
[6] = 0.50% Bronopol (30% active), 0.00% Bioban CS-1135, pH 6.58, Table 1
[7] = 0.50% Bronopol (30% active), 0.00% Dowicil 75, pH 6.58, Table 3
[8] = 0.80% Bronopol (30% active), 0.00% Bioban CS-1135, pH 6.57, Table 1
[9] = 0.80% Bronopol (30% active), 0.00% Dowicil 75, pH 6.57, Table 3
[10] = 1.20% Bronopol (30% active), 0.00% Bioban CS-1135, pH 6.57, Table 1
[11] = 1.20% Bronopol (30% active), 0.00% Dowicil 75, pH 6.57, Table 3
[12] = 0.10% Bioban CS-1135, 0.00% Bronopol, pH 6.68
[13] = 0.20% Bioban CS-1135, 0.00% Bronopol, pH 6.69
[14] = 0.80% Bioban CS-1135, 0.00% Bronopol, pH 6.62
[15] = 1.20% Bioban CS-1135, 0.00% Bronopol, pH 6.64
[16] = 2.00% Bioban CS-1135, 0.00% Bronopol, pH 6.82

O=[N+]([O-])C(Br)(CO)CO [Bronopol, 2-bromo-2-nitro-1,3-propanediol]
Challenge Test result: Bacteria E. coli & P. aeruginosa [1, 2]: Pass
Challenge Test result: Bacteria E. coli & P. aeruginosa [1, 3]: Pass
Challenge Test result: Bacteria E. coli & P. aeruginosa [1, 4]: Pass
Challenge Test result: Bacteria E. coli & P. aeruginosa [1, 5]: Pass
Challenge Test result: Bacteria E. coli & P. aeruginosa [1, 6]: Pass
Challenge Test result: Bacteria E. coli & P. aeruginosa [1, 7]: Pass
Challenge Test result: Bacteria E. coli & P. aeruginosa [1, 8]: Pass
Challenge Test result: Bacteria E. coli & P. aeruginosa [1, 9]: Pass
Challenge Test result: Bacteria E. coli & P. aeruginosa [1, 10]: Pass
Challenge Test result: Bacteria E. coli & P. aeruginosa [1, 11]: Pass
Challenge Test result: Yeast C. albicans (Candida albicans #10231; [2]): Fail
Challenge Test result: Yeast C. albicans (Candida albicans #10231; [3]): Pass
Challenge Test result: Yeast C. albicans (Candida albicans #10231; [4]): Fail
Challenge Test result: Yeast C. albicans (Candida albicans #10231; [5]): Pass
Challenge Test result: Yeast C. albicans (Candida albicans #10231; [6]): Pass
Challenge Test result: Yeast C. albicans (Candida albicans #10231; [7]): Pass
Challenge Test result: Yeast C. albicans (Candida albicans #10231; [8]): Pass
Challenge Test result: Yeast C. albicans (Candida albicans #10231; [9]): Pass
Challenge Test result: Yeast C. albicans (Candida albicans #10231; [10]): Pass
Challenge Test result: Yeast C. albicans (Candida albicans #10231; [11]): Pass

CC1(C)COCN1 [Bioban CS-1135, 4,4-dimethyl-oxazolidine]
Compound A end-point in % (C. albicans & A. niger): 2%
Challenge Test result: Bacteria E. coli & P. aeruginosa [1, 12]: Pass
Challenge Test result: Bacteria E. coli & P. aeruginosa [1, 13]: Pass
Challenge Test result: Bacteria E. coli & P. aeruginosa [1, 14]: Pass
Challenge Test result: Bacteria E. coli & P. aeruginosa [1, 15]: Pass
Challenge Test result: Bacteria E. coli & P. aeruginosa [1, 16]: Pass
Challenge Test result: Yeast C. albicans (Candida albicans #10231; [12]): Fail
Challenge Test result: Yeast C. albicans (Candida albicans #10231; [13]): Fail
Challenge Test result: Yeast C. albicans (Candida albicans #10231; [14]): Fail
Challenge Test result: Yeast C. albicans (Candida albicans #10231; [15]): Fail
Challenge Test result: Yeast C. albicans (Candida albicans #10231; [16]): Pass
killing of yeast (C. albicans) (Candida albicans #10231; BIOBAN CS-1135 at 1.2%, acrylic latex A): failed to kill
control of Candida albicans (Candida albicans #10231; maximum allowable level, test stabilized acrylic latex): failed to control
